Measured values reported in paper PMC12334608 (Nature Communications, 2025).
Positions count from the first letter of the chain named. “And” between values parts separate entries of the source, which are not always exact repeats. Equal entries are not always repeated.

Legend:
ACOX-1.1(N437A) = molecular target: T1, ACOX-1.1(N437A) (Caenorhabditis elegans, UniProt O62140, N437A); experiment: Enzyme-coupled kinetic assay, ACOX-1.1; format: biochemical, C. elegans
T1 sequence (O62140 1-674 N437A): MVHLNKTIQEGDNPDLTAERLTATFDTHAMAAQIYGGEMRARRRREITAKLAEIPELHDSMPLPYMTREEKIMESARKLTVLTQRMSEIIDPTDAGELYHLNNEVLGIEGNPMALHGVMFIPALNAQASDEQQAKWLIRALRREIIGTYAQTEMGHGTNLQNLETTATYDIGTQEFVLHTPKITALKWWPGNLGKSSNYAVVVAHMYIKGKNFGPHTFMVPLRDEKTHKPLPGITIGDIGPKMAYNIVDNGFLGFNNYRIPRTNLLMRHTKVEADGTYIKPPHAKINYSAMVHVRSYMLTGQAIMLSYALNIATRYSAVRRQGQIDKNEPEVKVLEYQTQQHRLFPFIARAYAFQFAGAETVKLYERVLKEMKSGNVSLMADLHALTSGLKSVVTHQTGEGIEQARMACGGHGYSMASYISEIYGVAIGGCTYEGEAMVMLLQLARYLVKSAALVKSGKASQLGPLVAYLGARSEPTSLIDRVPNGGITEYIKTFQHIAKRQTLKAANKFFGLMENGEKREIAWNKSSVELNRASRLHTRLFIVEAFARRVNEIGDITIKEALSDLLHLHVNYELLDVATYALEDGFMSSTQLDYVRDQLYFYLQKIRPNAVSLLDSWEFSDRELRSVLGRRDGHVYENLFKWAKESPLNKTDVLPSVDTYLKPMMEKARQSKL

ACOX-1.1(R295Q) = molecular target: T2, ACOX-1.1(R295Q) (Caenorhabditis elegans, UniProt O62140, R295Q); experiment: Enzyme-coupled kinetic assay, ACOX-1.1; format: biochemical, C. elegans
T2 sequence (O62140 1-674 R295Q): T1 sequence (O62140 1-674 N437A) with R295Q, A437N

ACOX-1.1(K391N) = molecular target: T3, ACOX-1.1(K391N) (Caenorhabditis elegans, UniProt O62140, K391N); experiment: Enzyme-coupled kinetic assay, ACOX-1.1; format: biochemical, C. elegans
T3 sequence (O62140 1-674 K391N): T1 sequence (O62140 1-674 N437A) with K391N, A437N

[1] = molecular target: aspartate transcarbamoylase; settings: read-out: KD of the high-affinity ATP site; ATP-activated aspartate transcarbamoylase; cited from earlier work
ACOX-1.1 = molecular target: T4, ACOX-1.1 (Caenorhabditis elegans, UniProt O62140); experiment: ATP hydrolysis by HPLC; format: biochemical, C. elegans; settings: 1 h incubation
T4 sequence (O62140 1-674): T1 sequence (O62140 1-674 N437A) with A437N

apo ACOX-1.1 = molecular target: T5, apo ACOX-1.1 (Caenorhabditis elegans, UniProt O62140); experiment: Enzyme-coupled kinetic assay, wild-type apo ACOX-1.1; format: biochemical, C. elegans; settings: EC50 for ATP
T5 sequence (O62140 1-674): T1 sequence (O62140 1-674 N437A) with A437N

response of enzyme activity to ATP (ACOX-1.1(N437A)): did not respond to ATP
response of enzyme activity to ATP (ACOX-1.1(R295Q)): do not respond to ATP
response of enzyme activity to ATP (ACOX-1.1(K391N)): did not respond to ATP
hydrolysis of ATP by ACOX-1.1 (ACOX-1.1): not hydrolyzed by ACOX-1.1
EC50 (apo ACOX-1.1; 10 μM FAD, 95% CI: 54.8–87.1 μM): 69.4 µM and ~69.4 µM
EC50 (apo ACOX-1.1; 200 μM FAD, 95% CI: 40.5–328.8 μM): 111 µM
SMILES: Nc1ncnc2c1ncn2[C@@H]1O[C@H](COP(=O)(O)OP(=O)(O)OP(=O)(O)O)[C@@H](O)[C@H]1O [ATP]
Kd [1]: 100 to 200 µM
